Results taken from patent US20160015036A1, “Methods and apparatuses related to pre- and post-dip teat treatment in milking facilities” (Aqua Access LLC, priority 2013, published 2016).

What was measured:
E. coli cells = details: 100 ppm hypochlorite applied for 1 min.; cited from earlier work
S. aures = experiment: Bacteriocidal activity tests of colloidal disinfectant mix at low/intermediate/high FAC, S. aureus; format: cell-based, Staphylococcus aureus; details: 200-300 ppm FAC in viscous post-dip solutions; 30 seconds
Procedure: (§1) FIG. 4 is an illustration of a test for bacteriocidal activity.
(§2) Colloid-based disinfectant mixing procedures were established as follows. Step 1—Mix 2 g GA into 90 mL of water, leave with constant slow mixing for 1 hour. Step 2—Generate chlorine-based oxidant by salt brine electrolysis. Measure FAC concentration by the Hach DPD technique. Step 3—Dilute free chlorine solution from fresh electrolyzed brine solution. Final FAC concentration to be 200 ppm or 300 ppm. Step 4—Add 1 g of pure lanolin (with no additives), fill up the volume to 100 mL. Mix with slow stirring or on a rotary carousel for another hour. If needed, add Brilliant Blue (food-grade) dye during the last mixing. Ready. Store at ambient temperature for up to 48 hours or 72 hours.
(§3) Also, 400 ppm FAC in the disinfectant colloid mix causes 7-log inactivation of E. coli, and 200 ppm FAC is sufficient for 6-log inactivation of S. aures. Higher FAC concentrations can be useful in pre-dip solutions for teat wash. 200-300 ppm FAC, which holds for a long time upon storage, can be sufficient for post-dip solutions. Note that the tests were performed under controlled laboratory conditions. Field test data might support the data, or might indicate that higher FAC concentrations are necessary.

E. coli = experiment: Bacteriocidal activity tests of colloidal disinfectant mix at low/intermediate/high FAC, E. coli; format: cell-based, Escherichia coli; details: 200-300 ppm FAC in viscous post-dip solutions; 30 seconds
Procedure: as §1, §2, §3

OCl [sodium hypochlorite]
E. coli cells killed (E. coli cells): 10^6 cells
log inactivation of Staphylococcus aureus (S. aures): 6 log
log inactivation of Escherichia coli (E. coli): 6 log
